The target of one experiment is T1, human PLK4 (Homo sapiens, UniProt O00444).
T1 construct: amino terminal GST fusion of residues 1-391 of human PLK4; made in house; host or cells: E. coli
T1 sequence (O00444 1-391): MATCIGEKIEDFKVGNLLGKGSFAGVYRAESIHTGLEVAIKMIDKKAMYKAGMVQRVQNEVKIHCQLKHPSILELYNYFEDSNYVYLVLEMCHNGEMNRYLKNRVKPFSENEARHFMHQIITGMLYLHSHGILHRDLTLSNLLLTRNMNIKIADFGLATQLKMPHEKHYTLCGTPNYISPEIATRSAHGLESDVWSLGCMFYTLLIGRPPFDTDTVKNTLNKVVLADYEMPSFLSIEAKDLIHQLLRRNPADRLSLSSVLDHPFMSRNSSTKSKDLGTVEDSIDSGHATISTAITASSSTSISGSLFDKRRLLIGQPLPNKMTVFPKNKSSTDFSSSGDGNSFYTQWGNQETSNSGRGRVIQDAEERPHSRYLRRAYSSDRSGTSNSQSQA
The experiment can be described thus: PLK4 inhibition assay (indirect ELISA). The format is biochemical. (In an ELISA, binding on a coated surface is turned into a signal by an enzyme label.)

Another experiment deals with Aurora B (Homo sapiens, UniProt Q96GD4). In words: Aurora B inhibition assay (Z-Lyte). Conditions: read-out: IC50 Ranges Aurora B. The class given is biochemical.
Sequence of Aurora B (Q96GD4 whole entry): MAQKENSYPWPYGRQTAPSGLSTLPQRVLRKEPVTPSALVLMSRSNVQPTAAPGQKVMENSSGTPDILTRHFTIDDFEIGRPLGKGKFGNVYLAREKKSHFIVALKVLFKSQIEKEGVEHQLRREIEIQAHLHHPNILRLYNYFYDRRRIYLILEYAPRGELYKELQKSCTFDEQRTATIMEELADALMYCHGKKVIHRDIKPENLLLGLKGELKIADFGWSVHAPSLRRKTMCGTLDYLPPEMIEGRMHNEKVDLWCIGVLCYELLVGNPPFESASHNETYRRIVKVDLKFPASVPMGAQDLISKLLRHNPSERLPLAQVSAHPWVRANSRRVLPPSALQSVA

Read-outs that look alike come from different tables or passages of the source.

Method for Aurora B: Aurora B inhibition was determined using the Z-Lyte assay kit from Invitrogen. […] The % inhibition values were determined according to the manufacturer's directions and IC50 values were obtained using a non-linear 4 point logistic curve fit (XLfit4, IDBS)
Method for human PLK4: PLK4 activity was measured using an indirect ELISA detection system. […] The colourimetric reaction was allowed to continue for 5 minutes, followed by addition of stop solution (0.5 N sulphuric acid), and quantified by detection at 450 nm with either a monochromatic or filter based plate reader (Molecular Devices M5 or Beckman DTX880, respectively).
Compounds were pre-incubated in the presence of enzyme for 15 minutes prior to addition of ATP and the activity remaining quantified using the above described activity assay. […] The IC50 value was determined using a non-linear 4 point logistic curve fit (XLfit4, IDBS) with the formula; (A+(B/(1+((x/C)^D)))), where A=background value, B=range, C=inflection point, D=curve fit parameter.

As usually defined, the IC50 is the concentration that gives 50% inhibition. `O=C1Nc2ncc(Br)cc2[C@]12C[C@H]2c1ccc2cn[nH]c2c1` (racemic) [Example A12, (1R*,2S*)-5′-bromo-2-(1H-indazol-6-yl)spiro[cyclopropane-1,3′-pyrrolo[2,3-b]pyridin]-2′(1′H)-one]: the IC50 on human PLK4 (read-out: IC50 Ranges PLK4) lay in the range of 100 to 1000 nM.

Turning to `COc1ccc2c(c1)[C@]1(C[C@@H]1c1ccc3c(-c4ccc(N5CCN(C)CC5)nc4)n[nH]c3c1)C(=O)N2` (relative stereo) [Example A17, (1R*,2R*)-5′-Methoxy-2-(3-(6-(4-methylpiperazin-1-yl)pyridin-3-yl)-1H-indazol-6-yl)spiro[cyclopropane-1,3′-indolin]-2′-one], the 50% inhibitory concentration (IC50) against human PLK4 is less than 100 nM; at Aurora B, 100 to 1000 nM.

Consider `CN1CCN(c2ccc(-c3n[nH]c4cc([C@@H]5C[C@@]56C(=O)Nc5ccc(Br)cc56)ccc34)cn2)CC1` (relative stereo) [Example A19, (1R*,2S*)-5′-bromo-2-(3-(6-(4-methylpiperazin-1-yl)pyridin-3-yl)-1H-indazol-6-yl)spiro[cyclopropane-1,3′-indolin]-2′-one], for which the IC50 on human PLK4 (read-out: IC50 Ranges PLK4) and at Aurora B was less than 100 nM throughout.

With `O=C1Nc2ccc(F)cc2[C@]12C[C@H]2c1ccc2c(I)n[nH]c2c1` (relative stereo) [Example A40, (1R*,2S*)-5′-fluoro-2-(3-iodo-1H-indazol-6-yl)spiro[cyclopropane-1,3′-indolin]-2′-one], the IC50 on human PLK4 (read-out: IC50 Ranges PLK4) and at Aurora B was 100 to 1000 nM in each case.

Regarding `COc1ccc2c(c1)[C@]1(C[C@H]1c1ccc3c(-c4ccc(N5CCN(C)CC5)cc4)n[nH]c3c1)C(=O)N2C` (relative stereo) [Example A100, (1R*,2S*)-5′-methoxy-1′-methyl-2-(3-(4-(4-methylpiperazin-1-yl)phenyl)-1H-indazol-6-yl)spiro[cyclopropane-1,3′-indolin]-2′-one 2,2,2-trifluoroacetate], the IC50 on human PLK4 (read-out: IC50 Ranges PLK4) and on Aurora B was less than 100 nM throughout.

Take `COc1ccc2c(c1)[C@]1(C[C@H]1c1ccc3c(-c4ccc(N5CCC(O)CC5)cc4)n[nH]c3c1)C(=O)N2` (relative stereo) [Example A118, (1R*,2S*)-2-(3-(4-(4-hydroxypiperidin-1-yl)phenyl)-1H-indazol-6-yl)-5′-methoxyspiro[cyclopropane-1,3′-indolin]-2′-one 2,2,2-trifluoroacetate]: the IC50 on human PLK4 (read-out: IC50 Ranges PLK4) was less than 100 nM.

For the compound `COc1ccc2c(c1)[C@]1(C[C@H]1c1ccc3c(-c4ccc(N5CCC(N(C)C)CC5)cc4)n[nH]c3c1)C(=O)N2` (relative stereo) [Example A119, (1R*,2S*)-2-(3-(4-(4-(dimethylamino)piperidin-1-yl)phenyl)-1H-indazol-6-yl)-5′-methoxy spiro[cyclopropane-1,3′-indolin]-2′-one 2,2,2-trifluoroacetate], the IC50 at human PLK4 (read-out: IC50 Ranges PLK4) and on Aurora B was less than 100 nM each time.

For `COc1ccc2c(c1)[C@]1(C[C@H]1c1ccc3c(C#Cc4ccc(C=O)cc4)n[nH]c3c1)C(=O)N2` (relative stereo) [Example A137, 4-((6-((1R*,2S*)-5′-methoxy-2′-oxospiro[cyclopropane-1,3′-indoline]-2-yl)-1H-indazol-3-yl)ethynyl)benzaldehyde], the IC50 on human PLK4 (read-out: IC50 Ranges PLK4) and on Aurora B was less than 100 nM each time.

`COc1ccc2c(c1)[C@]1(C[C@H]1c1ccc3c(C#Cc4ccc(CN5CCOCC5)cc4)n[nH]c3c1)C(=O)N2` (relative stereo) [Example A138, (1R*,2S*)-5′-methoxy-2-(3-((4-(morpholinomethyl)phenyl)ethynyl)-1H-indazol-6-yl)spiro[cyclopropane-1,3′-indolin]-2′-one 2,2,2-trifluoroacetate]: the IC50 at human PLK4 (read-out: IC50 Ranges PLK4) and at Aurora B was less than 100 nM in each case.

As for `COc1ccc2c(c1)[C@]1(C[C@H]1c1ccc3c(-c4ccc(CN5CCOCC5)cc4)n[nH]c3c1)C(=O)N2` (relative stereo) [Example A139, (1R*,2S*)-5′-methoxy-2-(3-(4-(morpholinomethyl)phenyl)-1H-indazol-6-yl)spiro[cyclopropane-1,3′-indolin]-2′-one 2,2,2-trifluoroacetate], the IC50 at human PLK4 (read-out: IC50 Ranges PLK4) and on Aurora B was less than 100 nM throughout.

`COc1ccc2c(c1)[C@]1(C[C@H]1c1ccc3c(-c4ccc(CN5CCN(C)CC5)cc4)n[nH]c3c1)C(=O)N2` (relative stereo) [Example A140, (1R*,2S*)-5′-methoxy-2-(3-(4-((4-methylpiperazin-1-yl)methyl)phenyl)-1H-indazol-6-yl)spiro[cyclopropane-1,3′-indolin]-2′-one bis-2,2,2-trifluoro acetate]: the IC50 on human PLK4 (read-out: IC50 Ranges PLK4) and on Aurora B was less than 100 nM throughout.

In the case of `COc1ccc2c(c1)[C@]1(C[C@H]1c1ccc3c(C#Cc4ccc(CN5CCN(C)CC5)cc4)n[nH]c3c1)C(=O)N2` (relative stereo) [Example A145, (1R*,2S*)-5′-methoxy-2-(3-((4-((4-methylpiperazin-1-yl)methyl)phenyl)ethynyl)-1H-indazol-6-yl)spiro[cyclopropane-1,3′-indolin]-2′-one bis(2,2,2-trifluoroacetate)], the IC50 at human PLK4 (read-out: IC50 Ranges PLK4) is less than 100 nM; on Aurora B, 100 to 1000 nM.

In the case of `O=C1Nc2ccccc2[C@]12C[C@H]2c1ccc2c(-c3cccc(CN4CCOCC4)c3)n[nH]c2c1` (relative stereo) [Example A153, (1R*,2S*)-2-(3-(3-(morpholinomethyl)phenyl)-1H-indazol-6-yl)spiro [cyclopropane-1,3′-indolin]-2′-one 2,2,2-trifluoroacetate], the IC50 at human PLK4 (read-out: IC50 Ranges PLK4) lay within 100 to 1000 nM.

On to `CN1CCN(Cc2ccc(-c3n[nH]c4cc([C@@H]5C[C@@]56C(=O)Nc5ccccc56)ccc34)cc2)CC1` (relative stereo) [Example A155, (1R*,2S*)-2-(3-(4-((4-methylpiperazin-1-yl)methyl)phenyl)-1H-indazol-6-yl)spiro[cyclopropane-1,3′-indolin]-2′-one bis-2,2,2-trifluoroacetate], for which the results for the IC50 at human PLK4 (read-out: IC50 Ranges PLK4) and on Aurora B were less than 100 nM and 100 to 1000 nM, respectively.

For the compound `CN1CCN(C(=O)c2ccc(-c3n[nH]c4cc([C@@H]5C[C@@]56C(=O)Nc5ccccc56)ccc34)cc2)CC1` (relative stereo) [Example A156, (1R*,2S*)-2-(3-(4-(4-methylpiperazine-1-carbonyl)phenyl)-1H-indazol-6-yl)spiro[cyclopropane-1,3′-indolin]-2′-one 2,2,2-trifluoroacetate], the IC50 at human PLK4 (read-out: IC50 Ranges PLK4) was less than 100 nM; on Aurora B, 100 to 1000 nM.

Consider `CN(C)Cc1cccc(/C=C/c2n[nH]c3cc([C@@H]4C[C@@]45C(=O)Nc4ccccc45)ccc23)c1` (relative stereo) [Example A162, (1R*,2S*)-(E)-2-(3-(3-((dimethylamino)methyl)styryl)-1H-indazol-6-yl) spiro[cyclopropane-1,3′-indolin]-2′-one 2,2,2-trifluoroacetate], for which the IC50 on human PLK4 (read-out: IC50 Ranges PLK4) and on Aurora B was less than 100 nM throughout.

For the compound `CN1CCN(c2ccc(-c3n[nH]c4cc([C@@H]5C[C@@]56C(=O)Nc5ccc(F)cc56)ccc34)cn2)CC1` (relative stereo) [Example A210, (1R*,2S*)-5′-fluoro-2-(3-(6-(4-methylpiperazine-1-yl)pyridine-3-yl)-1H-indazol-6-yl)-spiro[cyclopropane-1,3′-indolin]-2′-one], the IC50 at Aurora B was less than 100 nM.
